In PubChem BioAssay AID1963838 (Molecular Pharmacology Branch, DTP, NCI, 2024):
pIC50: −log10 of the molar value.

Test system: 855422-203-R-J1-PDC complex spheroid viability
Experiment: Anticancer human tumor 855422-203-R-J1-PDC patient-derived bladder carcinoma cell line growth inhibition [POLQ]
Conditions: for pIC50: curve of first compound; for viability, T/C: stronger effect = lower value
Procedure, shortened: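 Three-cell-type spheroids modelling solid tumor plus stroma served as the readout system; POL inhibitors were tested individually and in combination, concentration ranges set by clinical Cmax where known.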

[1] = second compound 0.0316 µM, first compound 0.0316 µM
[2] = second compound 0.0316 µM, first compound 0.1 µM
[3] = second compound 0.0316 µM, first compound 0.316 µM
[4] = second compound 0.0316 µM, first compound 1 µM
[5] = second compound 0.0316 µM, first compound 3.16 µM
[6] = second compound 0.0316 µM, first compound 10 µM
[7] = second compound 0.1 µM, first compound 0.0316 µM
[8] = second compound 0.1 µM, first compound 0.1 µM
[9] = second compound 0.1 µM, first compound 0.316 µM
[10] = second compound 0.1 µM, first compound 1 µM
[11] = second compound 0.1 µM, first compound 3.16 µM
[12] = second compound 0.1 µM, first compound 10 µM
[13] = second compound 0.316 µM, first compound 0.0316 µM
[14] = second compound 0.316 µM, first compound 0.1 µM
[15] = second compound 0.316 µM, first compound 0.316 µM
[16] = second compound 0.316 µM, first compound 1 µM
[17] = second compound 0.316 µM, first compound 3.16 µM
[18] = second compound 0.316 µM, first compound 10 µM
[19] = second compound 1 µM, first compound 0.0316 µM
[20] = second compound 1 µM, first compound 0.1 µM
[21] = second compound 1 µM, first compound 0.316 µM
[22] = second compound 1 µM, first compound 1 µM
[23] = second compound 1 µM, first compound 3.16 µM
[24] = second compound 1 µM, first compound 10 µM
[25] = second compound 3.16 µM, first compound 0.0316 µM
[26] = second compound 3.16 µM, first compound 0.1 µM
[27] = second compound 3.16 µM, first compound 0.316 µM
[28] = second compound 3.16 µM, first compound 1 µM
[29] = second compound 3.16 µM, first compound 3.16 µM
[30] = second compound 3.16 µM, first compound 10 µM
[31] = second compound 10 µM, first compound 0.0316 µM
[32] = second compound 10 µM, first compound 0.1 µM
[33] = second compound 10 µM, first compound 0.316 µM
[34] = second compound 10 µM, first compound 1 µM
[35] = second compound 10 µM, first compound 3.16 µM
[36] = second compound 10 µM, first compound 10 µM
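Also: spheroids exposed to compounds for seven days before readout.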

For `Nc1ccn(C2OC(CO)C(O)C2(F)F)c(=O)n1` (stereo not drawn) + Cc1cccc(N(C)C(=O)C2C(O)CCN2c2nc(C)cc(C(F)(F)F)c2C#N)c1, the pIC50 (second compound 0.0316 µM) was 7.10, the pIC50 (second compound 0.1 µM) was 7.00 and the pIC50 (second compound 0.316 µM) was 7.11. It also gave a pIC50 (second compound 1 µM) of 7.07, a pIC50 (second compound 3.16 µM) of 7.11 and a pIC50 (second compound 10 µM) of 7.16. The viability, T/C [1] was 84.7%, the viability, T/C [2] was 41% and the viability, T/C [3] was 12.6%. It also gave a viability, T/C [4] of 12.4%, a viability, T/C [5] of 8.52% and a viability, T/C [6] of 7.11%. For the same molecule, the viability, T/C [7] was 86.4%, the viability, T/C [8] was 50.5% and the viability, T/C [9] was 13.6%. The viability, T/C [10] was 9.98%, the viability, T/C [11] was 8.34% and the viability, T/C [12] was 6.1%. The viability, T/C [13] was 81.7%, the viability, T/C [14] was 40.7% and the viability, T/C [15] was 11.9%. It also gave a viability, T/C [16] of 10.9%, a viability, T/C [17] of 8.07% and a viability, T/C [18] of 5.67%. For the same molecule, the viability, T/C [19] was 83.7%, the viability, T/C [20] was 44.8% and the viability, T/C [21] was 12%. It also gave a viability, T/C [22] of 11.7%, a viability, T/C [23] of 8.68% and a viability, T/C [24] of 6.87%. The viability, T/C [25] was 86.5%, the viability, T/C [26] was 39.4% and the viability, T/C [27] was 14.8%. It also gave a viability, T/C [28] of 10.2%, a viability, T/C [29] of 10.4% and a viability, T/C [30] of 6.57%. For the same molecule, the viability, T/C [31] was 84.5%, the viability, T/C [32] was 34.4% and the viability, T/C [33] was 13.3%. The viability, T/C [34] was 12.7%, the viability, T/C [35] was 8.82% and the viability, T/C [36] was 8.17%.

With `C=CCn1c(=O)c2cnc(Nc3ccc(N4CCN(C)CC4)cc3)nc2n1-c1cccc(C(C)(C)O)n1` + Cc1cccc(N(C)C(=O)C2C(O)CCN2c2nc(C)cc(C(F)(F)F)c2C#N)c1 the pIC50 (second compound 0.0316 µM) was less than 6.00, the pIC50 (second compound 0.1 µM) was less than 6.00 and the pIC50 (second compound 0.316 µM) was less than 6.00. For the same molecule, the pIC50 (second compound 1 µM) was less than 6.00, the pIC50 (second compound 3.16 µM) was less than 6.00 and the pIC50 (second compound 10 µM) was less than 6.00. It also gave a viability, T/C (second compound 0.0316 µM, first compound 0.00316 µM) of 109%, a viability, T/C (second compound 0.0316 µM, first compound 0.01 µM) of 124% and a viability, T/C [1] of 98%. The viability, T/C [2] was 100%, the viability, T/C [3] was 113% and the viability, T/C [4] was 148%. For the same molecule, the viability, T/C (second compound 0.1 µM, first compound 0.00316 µM) was 110%, the viability, T/C (second compound 0.1 µM, first compound 0.01 µM) was 122% and the viability, T/C [7] was 93%. It also gave a viability, T/C [8] of 99%, a viability, T/C [9] of 124% and a viability, T/C [10] of 175%. It also gave a viability, T/C (second compound 0.316 µM, first compound 0.00316 µM) of 102%, a viability, T/C (second compound 0.316 µM, first compound 0.01 µM) of 101% and a viability, T/C [13] of 95.7%. The viability, T/C [14] was 101%, the viability, T/C [15] was 126% and the viability, T/C [16] was 173%. It also gave a viability, T/C (second compound 1 µM, first compound 0.00316 µM) of 87.7%, a viability, T/C (second compound 1 µM, first compound 0.01 µM) of 112% and a viability, T/C [19] of 91.1%. It also gave a viability, T/C [20] of 118%, a viability, T/C [21] of 124% and a viability, T/C [22] of 165%. For the same molecule, the viability, T/C (second compound 3.16 µM, first compound 0.00316 µM) was 91.4%, the viability, T/C (second compound 3.16 µM, first compound 0.01 µM) was 107% and the viability, T/C [25] was 100%. The viability, T/C [26] was 105%, the viability, T/C [27] was 115% and the viability, T/C [28] was 186%. For the same molecule, the viability, T/C (second compound 10 µM, first compound 0.00316 µM) was 119%, the viability, T/C (second compound 10 µM, first compound 0.01 µM) was 105% and the viability, T/C [31] was 115%. It also gave a viability, T/C [32] of 137%, a viability, T/C [33] of 208% and a viability, T/C [34] of 123%.

`C#Cc1c(F)ccc2cc(O)cc(-c3ncc4c(N5CC6CCC(C5)N6)nc(OCC56CCCN5CC(F)C6)nc4c3F)c12` (stereo not drawn) + Cc1cccc(N(C)C(=O)C2C(O)CCN2c2nc(C)cc(C(F)(F)F)c2C#N)c1 was tested, and the pIC50 (second compound 0.0316 µM) was less than 5.00, the pIC50 (second compound 0.1 µM) was less than 5.00 and the pIC50 (second compound 0.316 µM) was less than 5.00. For the same molecule, the pIC50 (second compound 1 µM) was less than 5.00, the pIC50 (second compound 3.16 µM) was less than 5.00 and the pIC50 (second compound 10 µM) was less than 5.00. It also gave a viability, T/C [1] of 106%, a viability, T/C [2] of 105% and a viability, T/C [3] of 108%. The viability, T/C [4] was 101%, the viability, T/C [5] was 105% and the viability, T/C [6] was 103%. The viability, T/C [7] was 103%, the viability, T/C [8] was 103% and the viability, T/C [9] was 102%. The viability, T/C [10] was 96.7%, the viability, T/C [11] was 103% and the viability, T/C [12] was 103%. It also gave a viability, T/C [13] of 106%, a viability, T/C [14] of 103% and a viability, T/C [15] of 99.4%. For the same molecule, the viability, T/C [16] was 97.4%, the viability, T/C [17] was 114% and the viability, T/C [18] was 110%. It also gave a viability, T/C [19] of 109%, a viability, T/C [20] of 99.7% and a viability, T/C [21] of 106%. For the same molecule, the viability, T/C [22] was 96.8%, the viability, T/C [23] was 111% and the viability, T/C [24] was 113%. It also gave a viability, T/C [25] of 101%, a viability, T/C [26] of 92.3% and a viability, T/C [27] of 97.5%. The viability, T/C [28] was 98.3%, the viability, T/C [29] was 107% and the viability, T/C [30] was 112%. The viability, T/C [31] was 102%, the viability, T/C [32] was 107% and the viability, T/C [33] was 112%. For the same molecule, the viability, T/C [34] was 94.3%, the viability, T/C [35] was 102% and the viability, T/C [36] was 100%.

`COc1ccc([C@@H](O)c2cc(-c3ncnc4cc(N5CCOCC5)ccc34)c(F)cc2Cl)nn1` + Cc1cccc(N(C)C(=O)C2C(O)CCN2c2nc(C)cc(C(F)(F)F)c2C#N)c1 was tested, and the pIC50 (second compound 0.0316 µM) was 5.27, the pIC50 (second compound 0.1 µM) was 5.29 and the pIC50 (second compound 0.316 µM) was 5.37. For the same molecule, the pIC50 (second compound 1 µM) was 5.52, the pIC50 (second compound 3.16 µM) was 5.38 and the pIC50 (second compound 10 µM) was 5.63. It also gave a viability, T/C [1] of 98.5%, a viability, T/C [2] of 109% and a viability, T/C [3] of 107%. It also gave a viability, T/C [4] of 84.7%, a viability, T/C [5] of 66.1% and a viability, T/C [6] of 32.7%. The viability, T/C [7] was 93.1%, the viability, T/C [8] was 101% and the viability, T/C [9] was 83.8%. It also gave a viability, T/C [10] of 87.7%, a viability, T/C [11] of 63.9% and a viability, T/C [12] of 30.1%. It also gave a viability, T/C [13] of 101%, a viability, T/C [14] of 111% and a viability, T/C [15] of 104%. For the same molecule, the viability, T/C [16] was 82.3%, the viability, T/C [17] was 58.1% and the viability, T/C [18] was 31.2%. For the same molecule, the viability, T/C [19] was 98.8%, the viability, T/C [20] was 97.2% and the viability, T/C [21] was 99.7%. For the same molecule, the viability, T/C [22] was 86.5%, the viability, T/C [23] was 49% and the viability, T/C [24] was 26.3%. It also gave a viability, T/C [25] of 108%, a viability, T/C [26] of 106% and a viability, T/C [27] of 89%. The viability, T/C [28] was 79.5%, the viability, T/C [29] was 56.2% and the viability, T/C [30] was 29.6%. It also gave a viability, T/C [31] of 96.4%, a viability, T/C [32] of 105% and a viability, T/C [33] of 96.5%. It also gave a viability, T/C [34] of 66.8%, a viability, T/C [35] of 47% and a viability, T/C [36] of 28.8%.
